The text below walks through data of US11407811B2, “Fusion protein, preparation method therefor and use thereof” (JIANGSU RONGTAI BIOTECH CO., LTD., priority 2017, dated 2022).

The subject of assay [1] is human umbilical vein endothelial cells (HUVEC). The assay can be described thus: Three-dimensional transwell assay, migration of HUVEC. It is filed as cell-based. The conditions noted are these: dose 8.0 · 10^−6 μg/mL. As to the method:
Human umbilical vein endothelial cells (HUVECs) were cultured with endothelial cell culture fluid containing 5% fetal bovine serum and 1×ECGS in a 5% CO2 incubator at 37° C., to a confluence of 90% or more, and then inhibitory effects of fusion protein I, protein II, protein III, protein IV, and protein V on migration of endothelial cells were detected by transwell assay, in which only endothelial cells HUVEC of passage 2 to 8 were used, and the specific operation was as follows.
(1) 10 mg/mL Matrigel was diluted with a DMEM medium at a ratio of 1:4, coated on a transwell chamber membrane, and air-dried at room temperature.
(2) HUVEC cells cultured to logarithmic phase were digested with 0.2% EDTA, collected, washed twice with PBS, followed by resuspended in an endothelial cell culture liquid containing 0.1% BSA, counted under a microscope, and the cell concentration was adjusted to 1×10^5 cells/mL;
(3) Test solutions for each group were formulated and diluted to 100 μL with a cell culture liquid containing 0.1% BSA;
Groups were divided as follows:
Blank control group: a cell culture liquid containing no drug;
Endostar group: 5 mg/mL Endostar solution diluted to a predetermined concentration with a cell culture liquid containing no drug; […]
(4) The cells were inoculated into a transwell chamber at 100 μL per well, and test solutions for each group were added to the chamber. To a 24-well plate, 0.6 mL of endothelial cell culture liquid containing 5% fetal bovine serum and 1×ECGS was added to stimulate cell migration, and incubated at 5% CO2 for 24 h at 37° C.
(5) The culture liquid in the well was discarded. The cells were fixed with 90% alcohol at room temperature for 30 min, stained with 0.1% crystal violet for 10 min at room temperature, and rinsed with water. Un-migrated cells in the upper layer were gently wiped off by a cotton swab. The observation was carried out under microscope and four fields of view were selected for taking photos and counting. The migration inhibition (MI) was calculated according to the formula: […]
where Ntest is the migration cell number in the test group, and Ncontrol is the migration cell number in the blank control group.
The test was repeated 3 times independently. The results obtained from the test were calculated as mean±SD, and statistical t-test was performed. P<0.05 was considered as a significant difference, and P<0.01 was considered as an extremely significant difference.

Assay [2] relates to adjuvant arthritis in rat. The assay can be described thus: Chronic inflammation of adjuvant arthritis in rat. The class given is in vivo. On the set-up: key to Clinical score Whole body: sum of hind/fore foot, ear, nose, tail scores; full score 8. As for the experimental part: 80 SPF SD rats were randomly divided into 8 groups. Rats in each group were lightly anesthetized with ether. Then, 0.1 mL of complete Freund's adjuvant containing inactivated Mycobacterium tuberculosis was injected subcutaneously into the left hind foot of the rats. Primary arthritis occurred in the left hind foot of the rat, and at about 13 days post-modeling, secondary arthritis occurred in the right hind foot. A blank control group was injected with an equal volume of physiological saline. The drug was administered 13 days after modeling. A methotrexate group was administered by injection every 5 days for 15 days, 4 times in total; the fusion protein I, protein II, protein III, protein IV, and protein V at high, medium and low doses (128 mg/kg, 32 mg/kg, 8 mg/kg) were administered by injection every 5 days for 15 days.
Using a foot volume measuring method, a marker was made with a fat-soluble marker at the left and right posterior ankle joint of each rat, and the left and right hind feet of the animal were respectively immersed in the volume measuring device. The immersion depth was bounded by the marker, and the reading value at the scale pipette of the device was the initial volume of the animal's left and right hind feet.
The day of modeling was considered as the 0th day and recorded as d0. The volume of the left hind foot (modeling foot) was measured from the first day d1 after modeling every 2 days. When the swelling occurred (i.e., secondary arthritis occurred) at the contralateral non-inflammatory foot (right hind foot), the administration was started. The volume of the left and right hind feet was measured every 2 days, and the degree of primary and secondary toe swelling was determined, which was calculated as follows:
Primary toe swelling (mL)=left hind foot volume on the day of measurement-initial volume of left hind foot
Secondary toe swelling (mL)=right hind foot volume on the day of measurement-initial volume of right hind foot 2. Clinical score
Systemic score: the systemic score was taken every 2 days after the onset of secondary inflammation.
Hind foot: no swelling=0 score, one hind foot swelling=1 score, two hind feet swelling=2 scores;
Forefoot: no swelling=0 score, one forefoot swelling=1 score, two forefeet swelling=2 scores;
Ear: no redness and nodules=0 score, redness or nodules in one ear=1 score, redness and nodules in both ears=2 scores;
Nose: no swelling=0 score, obvious swelling=1 score;
Tail: no nodules=0 score, with nodules=1 score; full score was 8 scores.
Arthritis index score: the arthritis index score was performed every 2 days after the onset of secondary inflammation.
The initial body weight of each group of rats was weighed before modeling. The body weight was measured every 2 days from d1 after modeling, from which the initial body weight was subtracted to obtain the weight gain of each group of rats.

In assay [3] the test system is xylene-induced ear swelling in mice. The experiment in a line: Xylene-induced ear swelling in mice. The class given is in vivo. The conditions noted are these: 200 mg/kg (positive control). As to the method: 80 Kunming mice were divided into 8 groups with 10 mice for each group and numbered. A physiological saline group was used as a blank control group, an aspirin group (200 mg/kg) was used as a positive control group, and fusion protein I, protein II, protein III, protein IV and protein V at high, medium and low doses (128, 32, 8 mg/kg) were used as experimental groups. Mice were administered once by injection, while EDSM needed to be administered twice a day for 5 consecutive days. The blank control group was given an equal volume of physiological saline. After the fifth day, 0.05 mL of xylene was applied to both sides of the right ears of the mice to induce inflammation, and the left ears were not applied and were normal ears. After 2 h, the mice were sacrificed by dislocation, and the ears were cut along the auricle. Ear pieces were taken with a puncher and weighed, and the swelling degree and swelling rate were calculated. Swelling degree=right ear piece weight-left ear piece weight, swelling rate=(swelling degree/left ear piece weight)×100%.

Assay [4] deals with breast cancer cell MDA-MB-231. The experiment in a line: MTT assay, proliferation of breast cancer cell MDA-MB-231. It is filed as cell-based. The note with it: dose 5 μg/mL. As to the method:
(§1) The MTT assay was used to detect the inhibitory effect of the integrin blocker fusion protein obtained in Example 1 on the proliferation of various tumor cells, including melanoma cell B16F10, gastric cancer cell MGC-803, lung cancer cell A549, liver cancer cell Hep-G2, breast cancer cell MDA-MB-231, colon cancer cell HCT-116, human glioma U87, and cervical cancer cell Hela.
(§2) The tumor cells were cultured in a 5% CO2 incubator at 37° C. to a density of 90% or more, and collected by trypsinization. The cells were resuspended in the culture liquid and counted under a microscope. The cell concentration was adjusted to 3.0×10^4 cells/mL. The cell suspension was inoculated into a 96-well plate at 100 μL per well and cultured overnight in a 5% CO2 incubator at 37° C. […] After the cells were fully adhered, each dilution was added to a 96-well plate at 100 μL per well, respectively. […] 20 μL of 5 mg/mL MTT was added to each well of a 96-well plate, and incubation was continued for 4 hours. The medium was aspirated and 100 μL of DMSO per well were added to dissolve. The absorbance was measured at 570 nm with a microplate reader with a reference wavelength of 630 nm, and the proliferation inhibition (PI) was calculated. The formula is as follows: […]
(§3) where Ntest is the OD value of the test group and Ncontrol is the OD value of the blank control group.
(§4) The test was repeated 5 times independently. The results obtained from the test were calculated as mean±SD, and statistical t-test was performed. P<0.05 was considered as a significant difference, and P<0.01 was considered as an extremely significant difference.

The subject of assay [5] is gastric cancer cell MGC-803. The assay can be described thus: MTT assay, proliferation of gastric cancer cell MGC-803. The class given is cell-based. The conditions noted are these: dose 5 μg/mL. As to the method: as §1, §2, §3, §4
In assay [6] the test system is human retinal vascular endothelial cell (HRCEC). The experiment in a line: MTT assay, proliferation of human retinal vascular endothelial cell (HRCEC). The class given is cell-based. The conditions noted are these: 5 μg/mL (positive control), 48 hours. As to the method:
The activity of the integrin blocker polypeptide to inhibit proliferation of human retinal vascular endothelial cells was examined by MTT assay. HRCEC cells were cultured in a 5% CO2 incubator at 37° C. to a density of 90% or more, and then collected by trypsinization. The cells were resuspended in the culture liquid and counted under a microscope. The cell concentration was adjusted to 3.0×10^4 cells/mL. The cell suspension was inoculated into a 96-well plate at 100 μL per well and cultured in a 5% CO2 incubator at 37° C. overnight. […] After the cells were fully adhered, each dilution was added to a 96-well plate at 100 μL per well, respectively. […] 20 μL of 5 mg/mL MTT was added to each well of a 96-well plate, and incubation was continued for 4 hours. The medium was aspirated and 100 μL of DMSO was added per well for dissolution. The absorbance was measured at 570 nm with a microplate reader with a reference wavelength of 630 nm, and the proliferation inhibition (PI) was calculated. The formula was as follows: […]
as §3
The test was repeated 5 times independently. The results obtained from the test were calculated as mean±SD, and statistical t-test was performed. P<0.05 was considered as significant difference, and P<0.01 was considered as extremely significant difference.

The subject of assay [7] is human glioma U87. The experiment in a line: MTT assay, proliferation of human glioma U87. The note with it: dose 5 μg/mL. It is filed as cell-based. As to the method:
as §1, §2, §3, §4

The test system of assay [8] is liver cancer cell Hep-G2. The assay can be described thus: MTT assay, proliferation of liver cancer cell Hep-G2. The class given is cell-based. The note with it: dose 5 μg/mL. As for the experimental part:
as §1, §2, §3, §4

The subject of assay [9] is melanoma cell line B16F10. The experiment in a line: MTT assay, proliferation of melanoma cell B16F10. It is filed as cell-based. The note with it: dose 5 μg/mL. As to the method: as §1, §2, §3, §4
In assay [10] the test system is lung cancer cell A549. The experiment in a line: MTT assay, proliferation of lung cancer cell A549. It is filed as cell-based. The note with it: dose 5 μg/mL. As to the method:
as §1, §2, §3, §4

For assay [11], the system named is colon cancer cells HCT-116. The assay can be described thus: MTT assay, proliferation of colon cancer cell HCT-116. The class given is cell-based. The conditions noted are these: dose 5 μg/mL. As for the experimental part:
as §1, §2, §3, §4

Assay [12] has as its system cervical cancer cell Hela. The assay can be described thus: MTT assay, proliferation of cervical cancer cell Hela. The conditions noted are these: dose 5 μg/mL. It is filed as cell-based. As for the experimental part:
as §1, §2, §3, §4

On to `CCN(CC)CCNC(=O)c1c(C)[nH]c(/C=C2\C(=O)Nc3ccc(F)cc32)c1C` [Sunitinib, reference compound], for which, in [1], the “MI (%)” value is listed as 82.13% and the Migration cell number worked out at 449.0 ± 153.86.

`CN(Cc1cnc2nc(N)nc(N)c2n1)c1ccc(C(=O)N[C@@H](CCC(=O)O)C(=O)O)cc1` [methotrexate, reference compound]: the Weight gain in assay [2] (1 mg/kg (positive drug)) is 47.32 ± 17.20 g. In addition, in [2] (1 mg/kg (positive drug), full score 8), the “Clinical score Whole body” value came to 1.31 ± 0.17. For the same compound, the “Foot swelling degree Left” value in assay [2] (1 mg/kg (positive drug), left hind foot (primary inflammation)) is 1.19 ± 0.20 mL. The “Clinical score Arthritis index” value in [2] (1 mg/kg (positive drug), maximum score 16) was determined as 2.00 ± 0.54. The “Foot swelling degree Right” value in [2] (1 mg/kg (positive drug), right foot (secondary inflammation)) was 1.22 ± 0.13 mL. Moreover, the “therapeutic effect on primary arthritis (primary toe swelling degree)” value in [2] (methotrexate group, injection every 5 days for 15 days) was “the best effect”.

In the case of `CC(=O)Oc1ccccc1C(=O)O` [aspirin, reference compound], in assay [3] (2 h after xylene, mice), the Swelling degree is recorded as 3.12 ± 0.34 mg. This compound also yielded a PI in assay [3] (ear swelling vs control) of 53.08%.

As to `CC(=O)O[C@H]1C(=O)[C@@]2(C)[C@H]([C@H](OC(=O)c3ccccc3)[C@]3(O)C[C@H](OC(=O)[C@H](O)[C@@H](NC(=O)c4ccccc4)c4ccccc4)C(C)=C1C3(C)C)[C@]1(OC(C)=O)CO[C@@H]1C[C@@H]2O` [Taxol, reference compound], the “A570 nm/A630 nm” value in assay [4] is listed as 0.4156 ± 0.0287; in [5] it was 0.6011 ± 0.0148; in assay [6], 0.2387 ± 0.0257; in assay [7], 0.2177 ± 0.0277; in [8] it was 0.3258; in assay [9], 0.5996 ± 0.0139. Also, the “A570 nm/A630 nm” value in [10] is 0.4269; in assay [11] it was 0.4103 ± 0.0287; in [12], 0.2114 ± 0.0275. The “PI (%)” value in assay [5] was 50.81%; in assay [7], 68.90%; in assay [8], 52.42%; in [9] it was 52.15%; in assay [10], 55.93%; in [11], 53.39%. For the same compound, the “PI (%)” value in [12] stood at 73.55%. The same compound displayed a PI in assay [6] of 82.28%.
